Assays:
CD166^high cells = assay: Induction of ER, K8 and luminal genes by TGF-β signaling inhibitors (qPCR, Western blotting, staining); type: cell-based, human
Experimental: To test the specificity of the effect of TGFβ[…], in some experiments SB431542 alone or the double concentration of SB431542 was used instead of TGFβ[…] or RepSox was replaced by another TGF-β type I receptor activin receptor-like kinase ALKS inhibitor, SD208 (1 μM, Tocris Bioscience). The vehicle, dimethyl sulfoxide (Sigma Aldrich), was included in all experiments added in appropriate concentrations for control cultures. Gentamycin (50 μg/ml, Biological Industries) was added to the cultures for one week after sorting, otherwise antibiotics were not included. […] In order to quantify cDNA concentration represented by cycle threshold (Ct) values, Cts were determined at the initial period of exponential amplification in triplicates and the different PCR runs were adjusted by inter-run calibrators (Bio-Rad CFX manager 3.0). Each gene expression level was to the mean of four reference gene expressions (GAPDH, HPRT1, TBP, and TFRC). The qRT-PCR data were then visualized as a heatmap using the statistical programi R or as a bar graph using the values calculated by the 2^-ΔΔCt method (Livak et al., 2001). […] Whole cell lysates were prepared for extraction by incubation in RIPA lysis buffer for 30 min at 4° C. with protease inhibitor cocktail (P8340, Sigma) and phosphatase inhibitor cocktail (Sigma, P5726). Protein were separated by a 4 12% Novex® Bis-Tris pre-cast polyacrylamide gradient gel (Life technologies) and transferred to a PVDF membrane using iBlot® dry blotting system (Life technologies). Molecular weight was indicated by using a pre-stained protein ladder (SM0671, Fermentas). […] Secondary antibodies conjugated with horseradish peroxidase (DAKO) were incubated for one hour at room temperature. Western blots were visualized using enhanced chemiluminescence solution ([…] 32106, Thermo Scientific) and a chemi-luminescence imager (Amersham Image 600, GE Healthcare life sciences).

[1] = test system: hTERT/shp16 transduced ER^pos HBEC; assay: qRT-PCR of ESR and PGR after 7 days exposure to inhibitors; type: cell-based, human; details: RepSox alone versus combination with SB431542
Experimental: FIG. 12: PCR analysis of human estrogen receptor signaling. (a) Using a commercially available PCR array containing 84 genes involved in ER activation and its response, qRT-PCR was conducted with RNA samples of ER^pos HBEC with or without TGFβ[…]. Among them, 20 genes (some of which are labeled in the plot) were highly expressed in the presence of TGFβ[…]. […] The black line indicates no difference between samples, while the pink lines indicate a two-fold change in gene expression. Two biological replicates were run I qRT-PCT with duplicates of each. […] Bars indicate the fold difference of the relative gene expression and error bars represent SD of triplicates in qPCR.

CD166^high-derived cells = assay: Long-term growth / population doublings on passaging; type: cell-based, human; details: in the absence of RepSox (SB431542 alone)
Description: For growth experiments cultures initially seeded at 6400 cells/cm^2 and grown for fifteen days in primary culture in TGFβR2i or with SB431542 alone. Next, the cultures were trypsinized and seeded at 4000 cells/cm^2 in triplicate cultures, and subsequently passaged at the same density before the cultures reached confluency. Parallel cultures were stained to assess Ks20.8, ER and PR expression status. The number of cells was quantified manually using a counting chamber. […] Population doublings were calculated as n=3.32(log UCY—log 1)+X, where n=population doubling, UCY=cell yield, 1=inoculum number, X=population doubling rate of inoculum. To determine whether continuous TGFβR2i culture was needed to sustain ER and K8 expression, cells in the sixth passage were switched to FAD2 and the number of ER^pos cells (n=3×100) was compared to parallel TGFβR2i cultures at day three and five.

ER^pos cells [2] = assay: PR protein staining after estrogen; type: cell-based, human; details: 10^−8 M β-estradiol, absence of EGF
Experimental: Cryostat sections, smears of sorted cells and monolayer cultures were prepared and stained by immunoperoxidase or immunofluorescence as previously described (Petersen et al. 1988, Villadsen et al. 2007, Rønnov-Jessen et al. 1992). Cellular smears for ER staining were fixed in 10% formalin for 10 min, followed by 5 min in ice-cold methanol:acetone (1:1), and incubated over night with anti-ER (Sp1, 1:10) at 4° C., followed by incubation for 30 min with Alexa Fluor 568 goat-anti rabbit IgG (Invitrogen). […] Immunofluorescence and peroxidase stainings were evaluated, quantified and photographed using a laser-scanning microscope (LSM 510; Carl Zeiss Microlmaging, Inc.) and brightfield microscopes (Laborlux S or DM5500B, Leica), respectively. For quantification of ER, K8, K19 and p63, nuclei were counterstained with hematoxylin and counted in randomly selected fields using an ocular grid and given as the percentage of stained cells of a total of 1000 cells evaluated with a 25 times objective.
As an ultimate test for a physiologically relevant ER expression we decided to assess the effect of added cognate ligand, i. e. estrogen (β-estradiol). […] Early passage cultures were exposed to estrogen or vehicle, and after four days the cell number was quantified. […]

ER^pos cells [3] = assay: Response to estrogen on confluent fibroblast feeders; type: cell-based, human; details: on confluent fibroblast feeders in TGFβR2i, day eight
Experimental: To assess whether the response of ER^pos cells to estrogen was modulated by the presence of fibroblasts, second or third passage ER^pos cells, with or without omission of EGF in the previous passage, were plated at a density of 5600 cells/cm^2 on confluent fibroblast feeders in triplicate culture. The following day, the culture medium was switched to TGFβR2i with estrogen or vehicle. […] At day eight, the cultures were trypsinized and the total cell number was quantified. Whether a continuous lack of EGF influenced the response to estrogen was tested in a similar set-up, where EGF was omitted from the medium during the entire experimental period.

luminal cells = assay: Screening assay for normal morphogenic behavior (co-culture on fibroblast feeder in BBMYAB); type: cell-based, human; details: E2 10^−8 M
Description: Within two weeks luminal cells grow up from single cells to form polarized structures, either comprising luminal cells only or luminal cells surrounded by a layer of myoepithelial cells, reminiscent of their organization in vivo.

ER^pos cells [4] = assay: Proliferative response to estrogen without EGF; type: cell-based, human; details: early passage cultures, 10^−8 M β-estradiol versus vehicle, four days
Experimental: To test the proliferative response to estrogen, ER^pos cells in TGFβR2i culture were seeded in second passage with 4000 cells/cm^2 in TGFβR2i with 25 μM RepSox and without EGF, supplemented with estrogen (10^−8 M, β-estradiol, E2758, Sigma-Aldrich) and cultured for up to 13 days with medium change every other day. A primary culture from another biopsy (P959) was cultured 27 days in the presence of estrogen and without EGF before splitting. The cells were passaged at 4000 cells/cm^2 in triplicate cultures with estrogen or vehicle (96% ethanol). At day four the cultures were trypsinized and quantified using a counting chamber.

ER^pos cells [5] = assay: qRT-PCR of PGR and GREB1 after estrogen; type: cell-based, human; details: long-term exposure to estrogen
ER and PR = assay: Substitution of EGF with amphiregulin in the culture medium; type: cell-based; details: EGF substituted with amphiregulin

## NC(=O)c1ccc(-c2nc(-c3ccc4c(c3)OCO4)c(-c3ccccn3)[nH]2)cc1 [SB431542]
CD166^high cells; SB431542 alone in FAD2
  ER expression at the mRNA level: capable of inducing increased expression of ER at the mRNA level
CD166^high cells; twice the concentration of SB431542 instead of TGFβR2i
  induction of K8 and ER: insufficient to induce K8 and ER

## Fc1ccc(Cl)cc1-c1nc(Nc2ccncc2)c2nccnc2n1 [SD208]
CD166^high cells; RepSox replaced by SD208
  induction of K8 and ER: insufficient to induce K8 and ER

## Cc1cccc(-c2[nH]ncc2-c2ccc3ncccc3n2)n1 [RepSox]
[1]
  induction of ER or PR: not as effective in inducing ER or PR as in combination with SB431542
CD166^high-derived cells
  expansion on passaging: could not be expanded beyond fourth passage

## β-estradiol [estrogen]
ER^pos cells [2]
  PR protein expression: higher focal expression of PR protein
ER^pos cells [3]
  cell number: significant increase in cell number
Luminal cells
  epithelial colony size: larger epithelial colonied are formed
  estrogen receptor and progesterone receptor expression: down-regulation of its receptor and induction of the downstream progesterone receptor
ER^pos cells [4]
  cell number: significantly higher cell numbers
ER^pos cells [5]
  expression of PGR and GREB1: increased expression of PGR and GREB1

B1: amphiregulin: EGF-like compound substituted for EGF in the culture medium (protein, UniProt P15514 101-187, looked up)
Amphiregulin: SVRVEQVVKPPQNKTESENTSDKPKRKKKGGKNGKNRRNRKKKNPCNAEFQNFCIHGECKYIEHLEAVTCKCQQEYFGERCGEKSMK
modifications: Amphiregulin
notes: EGF-like compound substituted for EGF in the culture medium
ER and PR
  level of ER and PR: a higher level of ER and PR is observed

— US20180135010A1, “ISOLATION AND LONG-TERM CULTURING OF ESTROGEN RECEPTOR-POSITIVE HUMAN BREAST EPITHELIAL CELLS” (University of Copenhagen, priority 2015, published 2018)
